Marks after values point to notes of the source that are not given here.
Columns and labels:
Aβ oligomers = assay: IP/Western blot of Aβ oligomers in 7PA2 conditioned media; type: cell-based, human
Method: Preparation of conditioned media: CHO— or 7PA2 cells were grown to ˜90% confluency. The cells were washed 1× in serum-free DMEM, then incubated overnight (˜15 hrs) in 4 ml/10 cm dish in serum-free DMEM, pen/strep, 1-glutamine with/without AZD-103. The following day, the conditioned media (CM) was collected, spun at 1000×g and treated with complete protease inhibitors (in mg/ml 1 leupeptin, 1 pepstatin, 0.1 aprotinin, 40 EDTA, and 2 mM 1/10 phenantroline) for biochemistry experiments or cell culture compatible protease inhibitors (Sigma P1860 1:1000) for electrophysiology experiments. The CM was stored at −80° C. until sufficient volumes were collected to complete a “batch”—typically ˜300 ml. […] The resulting concentrate was pooled, aliquoted in 1 ml fractions, and stored at −80° C. […] Therefore, for any given set of experiments (i.e. dose response curve, time curve, etc), a single batch is prepared and compared to 7PA2 alone within that batch.
IP/Western blots: 8 ml of 7PA2 CM were precleared with […] of protein A agarose for 30 min. The beads were spun down, and […] of the polyclonal anti-Aβ antibody R1282 was added to the supernatant with an additional 40 μl of protein A agarose. These samples were nutated at 4° C. overnight. The beads were washed with a series of buffers 0.5 STEN (sodium chloride, tris, EDTA, NP-40), SDS STEN, STEN. 2× tricine sample buffer was added to the washed beads, which were then boiled, centrifuged, and the resulting supernatant loaded onto 10-20% tricine gels. The proteins were then transferred to nitrocellulose, and probed with the anti-Aβ antibody 6E10.

cerebral amyloid plaques = assay: Cerebral amyloid burden (plaque number, area, size by immunohistochemistry); type: in vivo, mouse; conditions: TgCRND8 mice
Method: Mice. […] This initial dosage was chosen based upon the dosage of myo-cyclohexanehexol (6-18 grams/day/adult or 86-257 mg/Kg/day) that is typically administered to human patients for various psychiatric disorders. […] A cohort of animals (n=10 mice per treatment arm) entered the study at five months of age, and outcomes were then analyzed after one month of treatment. The body weight, coat characteristics and in cage behaviour were monitored. Mannitol was used as a negative control for potential alterations in caloric intake. All experiments were performed according to the Canadian Council on Animal Care guidelines. Behavioural tests: Morris Water Maze testing was performed as previously described. After non-spatial pre-training, mice underwent place discrimination training for 5 days with 4-trials per day, followed by a cued visible platform to rule out general motivational, learning deficits and motor problems, and a probe trial to evaluate memory. […] Open field test for motor activity was preformed as described previously. Duration of walking, pausing and grooming were analyzed as indices of spontaneous locomotor activity. Sensorimotor function was examined with an Economex™ accelerating rotarod (Columbus Instruments, Columbus, Ohio), as described elsewhere. The rod was set to accelerate at a rate of 0.2 r.p.m./s, from an initial, constant speed of 5 r.p.m. Latency to fall was recorded in four daily trials, conducted at 30 min intervals. All mice were trained for seven days before testing. The test day performance score for each animal was obtained by summing its latency to fall over the four trials Cerebral amyloid burden. Brains were removed and one hemisphere was fixed in 4% paraformaldehyde and embedded in paraffin wax in the mid sagittal plane. To generate sets of systematic uniform random sections, 5 μm serial sections were collected across the entire hemisphere. Sets of sections at 50 μm intervals were used for analyses (10-14 sections/set). Plaques were identified after antigen retrieval with formic acid, and incubation with primary anti-Aβ antibody (Dako M-0872), followed by secondary antibody (Dako StreptABCcomplex/horseradish kit). End products were visualized with DAB and were counter-stained with luxol fast blue. Amyloid plaque burden was assessed with LecoIA-3001 image analysis software interfaced with Leica microscope and Hitachi KP-M1U CCD video camera. Openlab imaging software (Improvision, Lexington, Mass.) was then used to convert micrographs to binary images for plaque number and plaque area determinations. Vascular amyloid burden was defined as amyloid originating from or surrounding blood vessels and was analysed similarly. Plasma and Cerebral Aβ Content. Hemi-brain samples were homogenized in a buffered sucrose solution, followed by either 0.4% diethylamine/100 mM NaCl for soluble Aβ levels or cold formic acid for the isolation of total Aβ. After neutralization, the samples were diluted and analyzed for Aβ40 and Aβ42 using commercially available kits (BIOSOURCE International). Each hemisphere was analyzed in triplicate and the mean values±SEM reported. Western blot analyses were performed on all fractions using urea gels for Aβ species analyses. Aβ was detected using 6E10 (BIOSOURCE International) and Enhanced Chemiluminenscence (Amersham). Gliosis Quantitation. Five randomly selected, evenly spaced, sagittal sections were collected from paraformaldehyde-fixed and frozen hemispheres of treated and control mice. Sections were immunolabelled for astrocytes with anti-rat GFAP IgG2, (Dako; diluted 1:50) and for microglia with anti-rat CD68 IgG2b (Dako; 1:50).

[1] = 1.25 μM applied to 7PA2 CM (post-cond)
[2] = 28 day course at 5 months of age, vs untreated
[3] = 28 days treatment, 6 months of age

Sequence of Aβ oligomers (P05067 672-711 limits assumed): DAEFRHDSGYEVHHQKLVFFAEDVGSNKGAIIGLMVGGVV

For “1,3,5/2,4,6-(scyllo-) cyclohexanehexol [Scyllo-cyclohexanehexol]”, the “Aβ dimer on Western blots” value (Aβ oligomers; [1]) was “unaffected”, the “Aβ trimer on Western blots” value (Aβ oligomers; [1]) was “reduced the trimer” and the “Aβ dimer and trimer levels measured absolutely and normalized to monomer” value (Aβ oligomers; dose response, pre-cond and post-cond, all concentrations) was “appeared to reduce dimer and trimer levels”. The “percent area of the brain covered by plaques, reduction” value (cerebral amyloid plaques; [2]) was 14±0.5%, the plaque number reduction (cerebral amyloid plaques; [2]) was 13±0.3% and the plaque size reduction (cerebral amyloid plaques; [2]) was 16±0.4%. For the same substance, the “Mean Plaque Size” value (cerebral amyloid plaques; [3]) was 336 ± 6* μm^2, the “Total Plaque Area” value (cerebral amyloid plaques; [3]) was 420027 ± 14986* μm^2 and the “Total Plaque Count” value (cerebral amyloid plaques; [3]) was 1260 ± 27.
